Assay results published in PubChem BioAssay (NCI).
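Where inhibition never reached the appropriate level, the endpoint shown equals the highest concentration tested. Otherwise, values were interpolated linearly from a five-concentration, 48-hour dose response in 96-well plates. GI50 is the concentration that inhibits growth by half. Definition used: TGI = concentration required for complete inhibition of growth.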 Where a SMILES comes first, the peptide text is derived from it. [ ]: non-standard residue; d: D form. The star is where a group is joined. ξ: configuration not given here. 4Abz = Nc1ccc(C(=O)O)cc1; ξL = CC(C)CC(N)C(=O)O; NHOH = ON*

Columns and labels:
Experiment in all cases: NCI tumour cell line growth inhibition, 48 h
[1] = test system: RXF-631 renal
[2] = test system: BT-549 breast
[3] = test system: T-47D breast
[4] = test system: MDA-N
[5] = test system: XF 498 CNS
[6] = test system: HOP-18 NSCLC

Compound | GI50 [2] [µM] | TGI [2] [µM] | GI50 [3] [µM] | TGI [3] [µM] | TGI [6] [µM] | further results
O=C1/C=C(/c2ccc(O)cc2)[C@H](O)Cc2ccc(OC3OC(CO)C(O)C(O)C3O)cc2O1 (some centres undefined) (tested in a mixture with another compound) |  |  |  |  |  | TGI [1]: > 100 µM
COc1ccc(OC)c(-c2cc(-c3ccc(Cl)cc3)nn2-c2ccc(S(N)(=O)=O)cc2)c1 | 12.4 | 29.4 |  |  |  | 
CC([C@H]1CCC2C3CCC4C(=O)C(NC=O)=CC[C@]4(C)C3CC[C@@]21C)N(C)C (some centres undefined) | 3.94 | 21.3 | 1.73 | 6.57 |  | 
NC(=O)c1ncn(C2CCC(CP(=O)(O)O)C2)c1N (centres undefined) |  |  |  | > 100 |  | TGI [4]: > 100 µM
COC(=O)c1nc(N)[nH]c(=O)c1-c1ccc(Cl)cc1 |  |  |  |  |  | TGI [1]: > 100 µM; TGI [5]: > 100 µM
COc1ccc2c(c1)Cc1cc(N=[N+]([O-])c3ccc4c(c3)Cc3cc(OC)ccc3-4)ccc1-2 |  | > 100 |  | > 100 |  | TGI [4]: > 100 µM
COc1ccc(-n2cc(-c3ccc(Cl)cc3)[nH]c2=S)cc1Cl | 20.5 | 55 | 18.4 | > 100 |  | 
O=C1C=Cc2cc3ccccc3c3cccc1c23 | 9.66 | 51.9 | 21.2 | > 100 |  | 
O=C1/C(=C/c2ccc(F)cc2)CN(Cc2cn(CCNc3ccnc4cc(Cl)ccc34)nn2)C/C1=C\c1ccc(F)cc1 | 1.85 | 3.26 | 1.89 | 4.33 |  | 
Cc1c(Br)cccc1NC(=O)c1sc2nc3c(cc2c1N)CN(Cc1ccccc1)CC3 | 0.708 | 25.3 | 0.205 | > 50 |  | 
CCCCCCCCOCC(O)COC (centres undefined) |  |  |  |  | > 100 | 
O=C(c1ccc(Cl)cc1)N(C(=S)N1CCN(c2ccccc2)CC1)C1CCCCC1 |  |  |  |  | > 100 | 
COc1ccc(/C=N\N2C(=O)Cc3ccccc32)cc1 |  |  |  |  | > 100 | TGI [5]: 83.9 µM
COc1ccc(NC(=O)CC(=O)n2nc(-c3ccccc3)c(N=Nc3ccc(C)cc3)c2-c2ccccc2)cc1 |  | > 58 |  | > 75 | > 78.3 | TGI [4]: > 100 µM; TGI [1]: > 100 µM; TGI [5]: 24.9 µM
COc1cc(C2CC(c3ccc(C)cc3)=NN2C(C)=O)ccc1Oc1ccnc2cc(Cl)ccc12 (centres undefined) | 3.48 | > 100 | 2.28 | 73.4 |  | 
COC(=O)C1=C(O)C(C(=O)OC)[C@@]2(O)[C@@H](C(=O)OC)C(c3ccccc3C(F)(F)F)C[C@@H]1[C@@H]2C(=O)OC (some centres undefined) | 3.08 | 11.9 | 0.737 | 5.98 |  | 
S=c1sc2ccccc2n1CN1CCN(Cc2ccccc2)CC1 |  | > 100 |  | > 100 |  | 
CC(=O)c1c[nH]c2ccc(-c3ccnc(Nc4ccc(NC(=O)c5cccc(F)c5)c(CN5CCOCC5)c4)n3)cc12 | 0.208 | 3.97 | 0.223 | 5.45 |  | 
N#CC1=C(N)Oc2c(sc3c(F)cccc23)C1c1ccc(Cl)cc1 (centres undefined) | 3.6 | 22.5 | 3.43 | 25.3 |  | 
COc1cc(C=C2C(=O)OC(C)(C)OC2=O)cc(OC)c1OC |  |  |  |  | > 100 | 
COc1ccc(CNCCN2C(=O)c3ccc4c5c(ccc(c35)C2=O)C(=O)N(CCNCc2ccc(OC)cc2)C4=O)cc1 | 0.35 | 1.03 | 0.306 | 1.42 |  | 

Compound | GI50 [2] [µM] | TGI [2] [µM] | GI50 [3] [µM] | TGI [3] [µM] | TGI [6] [µM] | further results
C=C1c2c(C)nn(-c3ccccc3)c2N(C)C23C[C@@H]1C1(C)c4c(C)nn(-c5ccccc5)c4N(C)C(C)(C[C@H]12)C3 (some centres undefined) | 5.55 | > 100 | 2.13 | > 100 |  | 
CC(C)n1c2c(c3ccccc3c1=O)C(=O)c1ccccc1-2 |  | > 100 |  | > 100 |  | TGI [4]: > 100 µM
COc1ccc(/C(C#N)=C/c2nc3c(N4CCOCC4)nc(Cl)nc3n2C)cc1OC | < 0.01 | 0.244 | 0.272 | 3.15 |  | 
COC(=O)c1ccc2n[se]nc2c1 |  |  |  |  | > 100 | TGI [1]: > 100 µM; TGI [5]: > 100 µM
CCC(C)CNC1=C(NC(C)=O)C(=O)c2ccccc2C1=O (centres undefined) |  |  |  |  |  | TGI [5]: > 100 µM
Cc1cc(C)c(-c2noc(-c3ccc(Cl)cc3)c2C2=NCCN2)c(C)c1 |  |  |  |  | > 100 | TGI [1]: > 100 µM; TGI [5]: 38.4 µM
COc1ccc2c(c1)C(CCN)C(=O)N2 (centres undefined) |  |  |  |  | > 100 | TGI [1]: > 100 µM; TGI [5]: > 100 µM
CC(C)CC(NC(=O)[C@@H]1CCCN1C(=O)CNC(=O)c1ccc(N)cc1)C(=O)N[C@H](C)C(=O)NO (some centres undefined) (H-[4Abz]GP[ξL][dA]-{NHOH}) | > 100 | > 100 | > 100 | > 100 |  | 
NC(=O)NC1=NCCC(=O)N1CCc1c[nH]c2ccccc12 |  |  |  | 65.5 |  | TGI [4]: 60.1 µM
O=C(/C=C(\O)C(=O)O)/C=C(\O)c1ccc(Cl)cc1 |  |  |  |  | > 100 | TGI [5]: > 100 µM
CC(=O)O/N=C1\C=Cc2c(no[n+]2[O-])C1=O |  |  |  | 57.5 |  | TGI [4]: 33.1 µM
Cn1c(=O)c(C2c3ccccc3Oc3c2c(=O)n(C)c2ccccc32)c(O)c2ccccc21 (centres undefined) |  |  |  |  | > 100 | TGI [1]: > 100 µM; TGI [5]: 75.9 µM
CCOc1cccc2cccnc12 |  |  |  |  | > 100 | TGI [5]: > 100 µM
COC(=O)C(=O)C(C(=O)C(=O)Nc1ccc(Cl)cc1Cl)c1nc2ccc(Cl)cc2[nH]c1=O (centres undefined) |  | > 100 |  |  |  | 
COc1ccc(-c2ccc(/C=N/n3cnn(CN4CCN(C)CC4)c3=S)o2)c([N+](=O)[O-])c1 | 27.5 | 91.8 | 23.1 | 54.3 |  | 
COc1ccccc1NC(=O)CC(=O)NNCC(=O)Nc1nc(-c2ccccc2)cs1 |  |  |  |  | > 100 | 
CCOC(=O)C(=C=Cc1cccs1)C(=O)c1ccccc1 |  |  |  |  | 34 | TGI [5]: 32.6 µM
O=C(Nc1ccc(Cl)cc1Cl)c1c/c(=N\O)c2ccc(O)cc2o1 |  |  |  |  | > 100 | TGI [1]: > 100 µM
O=C1CCc2cc([N+](=O)[O-])ccc2O1 |  | > 100 |  | > 100 |  | TGI [4]: > 100 µM
O=C(O)C(=O)/C=C\c1ccc(Cl)cc1 |  |  |  |  | > 100 | TGI [5]: > 100 µM
